What follows are compounds tested on Mycosphaerella graminicola (Septoria tritici) (assay: Mycosphaerella graminicola (Septoria tritici) / liquid culture (Septoria blotch)). Details: Zymoseptoria tritici, PDB potato dextrose broth, 24° C., 4-5 days after application, read-out: disease control (inhibition of growth determined photometrically).
Type: cell-based
Procedure: (§1) 13. Mycosphaerella graminicola (Septoria tritici)/Liquid Culture (Septoria Blotch): Conidia of the fungus from cryogenic storage were directly mixed into nutrient broth (PDB potato dextrose broth). After placing a DMSO solution of test compound into a 96-well microtiter plate at an application rate of 200 ppm, the nutrient broth containing the fungal spores was added. The test plates were incubated at 24° C. and the inhibition of growth was determined photometrically 4-5 days after application.

| Structure (SMILES) | inhibition at 200 ppm [%] |
| --- | --- |
| C=CC(=O)OCC(C)OC(=O)c1cc2c(cc1Cl)COB2O (centres unmarked) [Compound 191] | ≥ 80 |
| O=C(OCC(F)(F)Cl)c1cc2c(cc1Cl)COB2O [Compound 192] | ≥ 80 |
| O=C(OCC1CCSCC1)c1cc2c(cc1Cl)COB2O [Compound 196] | ≥ 80 |
| O=C(OCc1ccc(-c2ccccc2)cc1)c1cc2c(cc1Cl)COB2O [Compound 199] | ≥ 80 |
| O=C(OCCCCc1ccc2ccccc2c1)c1cc2c(cc1Cl)COB2O [Compound 227] | ≥ 80 |
| O=C(OCCC(F)(F)F)c1cc2c(cc1Cl)COB2O [Compound 238] | ≥ 80 |
| O=C(OCc1ccc(-c2ccccc2)cc1)c1ccc2c(c1)B(O)OC2 [Compound 325] | ≥ 80 |
| C#CC(CC)OC(=O)c1cc2c(cc1F)COB2O (centres unmarked) [Compound 387] | ≥ 80 |
| COC(=O)C(OC(=O)c1cc2c(cc1F)COB2O)c1ccccc1 (centres unmarked) [Compound 411] | ≥ 80 |

Each compound was assayed on Glomerella lagenarium (Colletotrichum lagenarium) (assay: Glomerella lagenarium (Colletotrichum lagenarium) / liquid culture (anthracnose)). Details: Colletotrichum orbiculare, PDB potato dextrose broth, 24° C., 3-4 days after application, read-out: disease control (inhibition of growth measured photometrically).
Type: cell-based
Procedure: as §1, with “11. Glomerella lagenarium (Colletotrichum lagenarium)/Liquid” for “13. Mycosphaerella graminicola (Septoria tritici)/Liquid”, “(Anthracnose):” for “(Septoria Blotch):”, “measured” for “determined”, “3-4” for “4-5”

| Structure (SMILES) | inhibition at 200 ppm [%] |
| --- | --- |
| C=CC(=O)OCC(C)OC(=O)c1cc2c(cc1Cl)COB2O (centres unmarked) [Compound 191] | ≥ 80 |
| O=C(OCC(F)(F)Cl)c1cc2c(cc1Cl)COB2O [Compound 192] | ≥ 80 |
| O=C(OCC1CCSCC1)c1cc2c(cc1Cl)COB2O [Compound 196] | ≥ 80 |
| O=C(OCc1ccc(-c2ccccc2)cc1)c1cc2c(cc1Cl)COB2O [Compound 199] | ≥ 80 |
| O=C(OCCCCc1ccc2ccccc2c1)c1cc2c(cc1Cl)COB2O [Compound 227] | ≥ 80 |
| O=C(OCCC(F)(F)F)c1cc2c(cc1Cl)COB2O [Compound 238] | ≥ 80 |
| O=C(OCc1ccc(-c2ccccc2)cc1)c1ccc2c(c1)B(O)OC2 [Compound 325] | ≥ 80 |
| Cn1cc(CCCOC(=O)c2ccc3c(c2)B(O)OC3)cn1 [Compound 345] | ≥ 80 |
| O=C(OCCF)c1ccc2c(c1)B(O)OC2 [Compound 360] | ≥ 80 |
| O=C(OCc1ccc(C(F)(F)F)cc1Cl)c1cc2c(cc1F)COB2O [Compound 386] | ≥ 80 |
| C#CC(CC)OC(=O)c1cc2c(cc1F)COB2O (centres unmarked) [Compound 387] | ≥ 80 |
| C#CCCCOC(=O)c1cc2c(cc1F)COB2O [Compound 395] | ≥ 80 |
| Cn1cc(CCCOC(=O)c2cc3c(cc2F)COB3O)cn1 [Compound 407] | ≥ 80 |
| O=C(OCc1ncc(C(F)(F)F)cc1Cl)c1cc2c(cc1F)COB2O [Compound 409] | ≥ 80 |
| COC(=O)C(OC(=O)c1cc2c(cc1F)COB2O)c1ccccc1 (centres unmarked) [Compound 411] | ≥ 80 |
| COCCOC(=O)c1cc2c(cc1F)COB2O [Compound 412] | ≥ 80 |

These compounds were tested on Mycosphaerella arachidis (Cercospora arachidicola) (assay: Mycosphaerella arachidis (Cercospora arachidicola) / liquid culture (early leaf spot)). Details: PDB potato dextrose broth, 24° C., 4-5 days after application, read-out: disease control (inhibition of growth determined photometrically).
Type: cell-based
Procedure: as §1, with “12.” for “13.”, “arachidis (Cercospora arachidicola)/Liquid” for “graminicola (Septoria tritici)/Liquid”, “(Early Leaf Spot):” for “(Septoria Blotch):”

| Structure (SMILES) | inhibition at 200 ppm [%] |
| --- | --- |
| O=C(OCc1ccc(-c2ccccc2)cc1)c1ccc2c(c1)B(O)OC2 [Compound 325] | ≥ 80 |
| Cn1cc(CCCOC(=O)c2ccc3c(c2)B(O)OC3)cn1 [Compound 345] | ≥ 80 |
| O=C(OCCF)c1ccc2c(c1)B(O)OC2 [Compound 360] | ≥ 80 |
| O=C(OCc1ccc(C(F)(F)F)cc1Cl)c1cc2c(cc1F)COB2O [Compound 386] | ≥ 80 |
| C#CCCCOC(=O)c1cc2c(cc1F)COB2O [Compound 395] | ≥ 80 |
| Cn1cc(CCCOC(=O)c2cc3c(cc2F)COB3O)cn1 [Compound 407] | ≥ 80 |
| COCCOC(=O)c1cc2c(cc1F)COB2O [Compound 412] | ≥ 80 |

These compounds were tested on Gaeumannomyces graminis (assay: Gaeumannomyces graminis / liquid culture (take-all of cereals)). Details: PDB potato dextrose broth, 24° C., 4-5 days after application, read-out: disease control (inhibition of growth determined photometrically).
Type: cell-based
Procedure: 14. Gaeumannomyces graminis/Liquid Culture (Take-all of Cereals): Mycelial fragments of the fungus from cryogenic storage were directly mixed into nutrient broth (PDB potato dextrose broth). After placing a DMSO solution of test compound into a 96-well microtiter plate at an application rate of 200 ppm, the nutrient broth […], containing the fungal spores is added. The test plates were incubated at 24° C. and the inhibition of growth was determined photometrically 4-5 days after application.

| Structure (SMILES) | inhibition at 200 ppm [%] |
| --- | --- |
| C=CC(=O)OCC(C)OC(=O)c1cc2c(cc1Cl)COB2O (centres unmarked) [Compound 191] | ≥ 80 |
| O=C(OCC(F)(F)Cl)c1cc2c(cc1Cl)COB2O [Compound 192] | ≥ 80 |
| O=C(OCC1CCSCC1)c1cc2c(cc1Cl)COB2O [Compound 196] | ≥ 80 |
| O=C(OCc1ccc(-c2ccccc2)cc1)c1cc2c(cc1Cl)COB2O [Compound 199] | ≥ 80 |
| O=C(OCCC(F)(F)F)c1cc2c(cc1Cl)COB2O [Compound 238] | ≥ 80 |
| O=C(OCc1ccc(-c2ccccc2)cc1)c1ccc2c(c1)B(O)OC2 [Compound 325] | ≥ 80 |
| Cn1cc(CCCOC(=O)c2ccc3c(c2)B(O)OC3)cn1 [Compound 345] | ≥ 80 |
| O=C(OCc1ccc(C(F)(F)F)cc1Cl)c1cc2c(cc1F)COB2O [Compound 386] | ≥ 80 |
| C#CC(CC)OC(=O)c1cc2c(cc1F)COB2O (centres unmarked) [Compound 387] | ≥ 80 |
| C#CCCCOC(=O)c1cc2c(cc1F)COB2O [Compound 395] | ≥ 80 |
| O=C(OCc1ncc(C(F)(F)F)cc1Cl)c1cc2c(cc1F)COB2O [Compound 409] | ≥ 80 |
| COC(=O)C(OC(=O)c1cc2c(cc1F)COB2O)c1ccccc1 (centres unmarked) [Compound 411] | ≥ 80 |

What follows are compounds tested on Pythium ultimum (assay: Pythium ultimum / liquid culture (seedling damping off)). Details: Globisporangium ultimum; 200 ppm; potato dextrose broth, 24° C., 2-3 days after application; read-out: disease control (inhibition of growth determined photometrically).
Type: cell-based

| Structure (SMILES) | inhibition at 200 ppm [%] |
| --- | --- |
| O=C(OCC(F)(F)Cl)c1cc2c(cc1Cl)COB2O [Compound 192] | ≥ 80 |
| O=C(OCC1CCSCC1)c1cc2c(cc1Cl)COB2O [Compound 196] | ≥ 80 |
| O=C(OCCC(F)(F)F)c1cc2c(cc1Cl)COB2O [Compound 238] | ≥ 80 |
| Cn1cc(CCCOC(=O)c2ccc3c(c2)B(O)OC3)cn1 [Compound 345] | ≥ 80 |
| O=C(OCCF)c1ccc2c(c1)B(O)OC2 [Compound 360] | ≥ 80 |
| O=C(OCc1ccc(C(F)(F)F)cc1Cl)c1cc2c(cc1F)COB2O [Compound 386] | ≥ 80 |
| C#CC(CC)OC(=O)c1cc2c(cc1F)COB2O (centres unmarked) [Compound 387] | ≥ 80 |
| C#CCCCOC(=O)c1cc2c(cc1F)COB2O [Compound 395] | ≥ 80 |
| Cn1cc(CCCOC(=O)c2cc3c(cc2F)COB3O)cn1 [Compound 407] | ≥ 80 |
| O=C(OCc1ncc(C(F)(F)F)cc1Cl)c1cc2c(cc1F)COB2O [Compound 409] | ≥ 80 |
| COC(=O)C(OC(=O)c1cc2c(cc1F)COB2O)c1ccccc1 (centres unmarked) [Compound 411] | ≥ 80 |
| COCCOC(=O)c1cc2c(cc1F)COB2O [Compound 412] | ≥ 80 |

What follows are compounds tested on Plasmopara viticola (assay: whole plant or invertebrate). Details: foliar, read-out: disease control.
Type: in vivo

| Structure (SMILES) | pest or weed control at 200 ppm [%] |
| --- | --- |
| O=C(OCC(F)(F)Cl)c1cc2c(cc1Cl)COB2O [Compound 192] | ≥ 80 |
| O=C(OCC1CCSCC1)c1cc2c(cc1Cl)COB2O [Compound 196] | ≥ 80 |
| O=C(OCCC(F)(F)F)c1cc2c(cc1Cl)COB2O [Compound 238] | ≥ 80 |
| Cn1cc(CCCOC(=O)c2ccc3c(c2)B(O)OC3)cn1 [Compound 345] | ≥ 80 |
| O=C(OCCF)c1ccc2c(c1)B(O)OC2 [Compound 360] | ≥ 80 |
| C#CCCCOC(=O)c1cc2c(cc1F)COB2O [Compound 395] | ≥ 80 |
| O=C(OCc1ncc(C(F)(F)F)cc1Cl)c1cc2c(cc1F)COB2O [Compound 409] | ≥ 80 |
| COC(=O)C(OC(=O)c1cc2c(cc1F)COB2O)c1ccccc1 (centres unmarked) [Compound 411] | ≥ 80 |
| COCCOC(=O)c1cc2c(cc1F)COB2O [Compound 412] | ≥ 80 |

The compounds below were run on Monographella nivalis (Microdochium nivale) (assay: Monographella nivalis (Microdochium nivale) / liquid culture (foot rot cereals)). Details: PDB potato dextrose broth, 24° C., 4-5 days after application, read-out: disease control (inhibition of growth determined photometrically).
Type: cell-based

| Structure (SMILES) | inhibition at 200 ppm [%] |
| --- | --- |
| C=CC(=O)OCC(C)OC(=O)c1cc2c(cc1Cl)COB2O (centres unmarked) [Compound 191] | ≥ 80 |
| O=C(OCC(F)(F)Cl)c1cc2c(cc1Cl)COB2O [Compound 192] | ≥ 80 |
| O=C(OCC1CCSCC1)c1cc2c(cc1Cl)COB2O [Compound 196] | ≥ 80 |
| O=C(OCc1ccc(-c2ccccc2)cc1)c1cc2c(cc1Cl)COB2O [Compound 199] | ≥ 80 |
| O=C(OCCCCc1ccc2ccccc2c1)c1cc2c(cc1Cl)COB2O [Compound 227] | ≥ 80 |
| O=C(OCCC(F)(F)F)c1cc2c(cc1Cl)COB2O [Compound 238] | ≥ 80 |
| O=C(OCc1ccc(-c2ccccc2)cc1)c1ccc2c(c1)B(O)OC2 [Compound 325] | ≥ 80 |
| O=C(OCc1ccc(C(F)(F)F)cc1Cl)c1cc2c(cc1F)COB2O [Compound 386] | ≥ 80 |
| C#CC(CC)OC(=O)c1cc2c(cc1F)COB2O (centres unmarked) [Compound 387] | ≥ 80 |
| C#CCCCOC(=O)c1cc2c(cc1F)COB2O [Compound 395] | ≥ 80 |
| O=C(OCc1ncc(C(F)(F)F)cc1Cl)c1cc2c(cc1F)COB2O [Compound 409] | ≥ 80 |
| COC(=O)C(OC(=O)c1cc2c(cc1F)COB2O)c1ccccc1 (centres unmarked) [Compound 411] | ≥ 80 |
| COCCOC(=O)c1cc2c(cc1F)COB2O [Compound 412] | ≥ 80 |

Each compound was assayed on Thanatephorus cucumeris (Rhizoctonia solani) (assay: Thanatephorus cucumeris (Rhizoctonia solani) / liquid culture (foot rot, damping-off)). Details: PDB potato dextrose broth, 24° C., 3-4 days after application, read-out: disease control (inhibition of growth determined photometrically).
Type: cell-based
Procedure: 17. Thanatephorus cucumeris (Rhizoctonia solani)/Liquid Culture (Foot Rot, Damping-Off): Mycelia fragments of a newly grown liquid culture of the fungus were directly mixed into nutrient broth (PDB potato dextrose broth). After placing a DMSO solution of the test compounds into a 96-well microtiter plate at an application rate of 200 ppm, the nutrient broth containing the fungal material was added. The test plates were incubated at 24° C. and the inhibition of growth was determined photometrically 3-4 days after application.

| Structure (SMILES) | inhibition at 200 ppm [%] |
| --- | --- |
| O=C(OCC(F)(F)Cl)c1cc2c(cc1Cl)COB2O [Compound 192] | ≥ 80 |
| O=C(OCCCCc1ccc2ccccc2c1)c1cc2c(cc1Cl)COB2O [Compound 227] | ≥ 80 |
| O=C(OCCC(F)(F)F)c1cc2c(cc1Cl)COB2O [Compound 238] | ≥ 80 |
| Cn1cc(CCCOC(=O)c2ccc3c(c2)B(O)OC3)cn1 [Compound 345] | ≥ 80 |
| O=C(OCCF)c1ccc2c(c1)B(O)OC2 [Compound 360] | ≥ 80 |
| O=C(OCc1ccc(C(F)(F)F)cc1Cl)c1cc2c(cc1F)COB2O [Compound 386] | ≥ 80 |
| C#CC(CC)OC(=O)c1cc2c(cc1F)COB2O (centres unmarked) [Compound 387] | ≥ 80 |
| C#CCCCOC(=O)c1cc2c(cc1F)COB2O [Compound 395] | ≥ 80 |
| Cn1cc(CCCOC(=O)c2cc3c(cc2F)COB3O)cn1 [Compound 407] | ≥ 80 |
| O=C(OCc1ncc(C(F)(F)F)cc1Cl)c1cc2c(cc1F)COB2O [Compound 409] | ≥ 80 |
| COCCOC(=O)c1cc2c(cc1F)COB2O [Compound 412] | ≥ 80 |
